According to paper PMC9586926, “An efflux-susceptible antibiotic-adjuvant with systemic efficacy against mouse infections” (Scientific Reports, 2022):
Where a SMILES comes first, the peptide text is derived from it. [ ]: non-standard residue; d: D form. The star is where a group is joined. 12Ado = NCCCCCCCCCCCC(=O)O; Decanoyl = CCCCCCCCCC(=O)*; Dab = NCC[C@H](N)C(=O)O

Legend:
UPEC CFT073 = assay: Urinary-tract infection model; type: in vivo, mice
Protocol: The study is reported in accordance with ARRIVE guidelines.
Lipopeptides potential application in monotherapy and/or combination-therapies was explored with two infection models. In the peritonitis-sepsis model, mice (n = 10 per group) were first rendered neutropenic by two intraperitoneal (I.P.) injections of 0.3 ml containing 150 mg/kg and 100 mg/kg cyclophosphamide, administered 4 days and 1 day before the experiment, respectively. […] Mice survival was recorded for up to 7 days. In a variant assay, bacteria in PBS (1.4 × 10^6) were pre-treated with 10 µM lipopeptides for 15 min, similarly administered, and mice survival was recorded for up to 3 days. In the urinary-tract infection (UTI) model, mice (N = 5 mice per group) were anesthetized by a single I.P. injection (0.2 ml) containing a mixture of ketamine (100 mg/kg) and xylazine (5 mg/kg). Following application of an analgesic 2% lidocaine gel on their penises, mice were infected intra-urethraly using a 24-gauge catheter with 1.2 × 10^8 CFU/mouse (0.05 ml) and treated with the vehicle control (S.C., 1 h post-infection), 2 mg/kg rifampin (oral gavage, immediately before anesthesia), 7.5 mg/kg q.i.d. lipopeptides (S.C., starting 1 h post-infection), or both. Mice were sacrificed 24 h post-infection, their bladder and kidneys aseptically excised, suspended in 5 ml of sterile PBS, homogenized for 3 min using a bench-top homogenizer, serially tenfold diluted in saline, plated on LB agar, and incubated over-night at 37 °C for enumeration.

K. pneumoniae = assay: MIC, broth microdilution; type: cell-based, Klebsiella pneumoniae; details: broth microdilution in LB, 18–24 h, 37 °C; n = 2 strains
From the text: (§1) Bacteria used in this study consisted of standard American Type Culture Collection (ATCC; Biological Industries, Beit Haemek, Israel) strains, clinically isolated (CI; Sourasky Medical Center, Tel Aviv, Israel) strains, as well as isogenic mutant strains. Gram-negative bacteria included Acinetobacter baumannii ATCC 19606; Escherichia coli ATCC 25922, 35218, CFT073, CI 14384, 16327, and the isogenic pair Ag100 (wild-type) and its efflux deficient mutant Ag100a (ΔacrAB); Klebsiella pneumoniae CI 1287, 224; Pseudomonas aeruginosa ATCC 27853, CI 1278, 8634; Salmonella enterica serovar Typhimurium ATCC 14028 (wild-type) and its isogenic efflux deficient mutant ΔacrAB. Bacteria were grown in Luria–Bertani broth (LB; 5 g/l NaCl, 5 g/l yeast extract, 10 g/l tryptone; pH = 7.0) at 37 °C with shaking. Over-night cultures were diluted 10-folds into fresh growth-medium and incubated at 37 °C with shaking until reaching mid-logarithmic phase. Then, bacterial concentrations were adjusted using O.D.600 nm measurements, and bacteria were subjected to the experimental procedures listed herein.
(§2) MIC was determined according to the broth microdilution method: antimicrobials were subjected to serial twofold dilutions in LB medium, and incubated with 5 × 10^5 CFU/ml of bacteria (final volume of 200 µl) for 18–24 h at 37 °C. Then, O.D.620 nm was measured (BioTek Instruments Synergy HT; Winooski, VT, USA), and the MIC was defined as the lowest antimicrobial concentration for which no increase in O.D.620 nm was evident, compared to the untreated control.

[1] = Binding to lipopolysaccharide, displacement of mono-dansylated polymyxin B; design: species or system E. coli; details: 2 µM DPMB, 3 µg/ml LPS, 1.5 h, compared with PMB; two independent experiments
Protocol: Affinity to lipopolysaccharide (LPS) was assessed using fluorescent measurements of displaced mono-dansylated polymyxin B (DPMB)[68]. 180 µl of 5 mM HEPES containing 2 µM DPMB and 3 µg/ml LPS (from E. coli) were dispensed into black microtiter plates and mixed with 20 µl of HEPES containing serial twofold dilutions of lipopeptides. Plates were incubated in the dark for 1.5 h at room-temperature and fluorescence (excitation: 340 nm; emission: 485 nm) was recorded immediately thereafter (BioTek Instruments Synergy HT; Winooski, VT, USA).

E. coli Ag100a (ΔacrAB) = assay: MIC, broth microdilution, efflux deficient mutant; type: cell-based, Escherichia coli; details: E. coli Ag100a (ΔacrAB) versus Ag100
From the text: as §1
MIC was determined according to the broth microdilution method: antimicrobials were subjected to serial twofold dilutions in LB medium, and incubated with 5 × 10^5 CFU/ml of bacteria (final volume of 200 µl) for 18–24 h at 37 °C. […]

E. coli = assay: MIC, broth microdilution; type: cell-based, Escherichia coli; details: broth microdilution in LB, 18–24 h, 37 °C; n = 4 strains; published data in bold (not discernible)
From the text: as §1, §2

HEK-293FT = assay: Cytotoxicity, Alamar blue; type: cell-based, human; details: 24 h incubation, read-out: IC50 HEK-293FT (50% inhibition of cells respiration)
Protocol: Cell lines used in this study included murine RAW 264.7 macrophages and human embryonic kidney HEK-293FT cells (ATCC, Biological Industries, Beit Haemek, Israel). Cells were grown in Dulbecco’s modified eagle medium (DMEM) containing […] glucose, L-glutamine, sodium bicarbonate and sodium pyruvate, supplemented with 10% fetal bovine serum and pen-strep, at 37 °C and 5% CO2.
Lipopeptides cytotoxicity was determined using fluorescent measurements of reduced resazurin. 2 × 10^4 cells were first cultured in 96-well plates over-night (final volume of 100 µl) at 37 °C and 5% CO2. Then, the medium was removed and cells were incubated for an additional 24 h with serial twofold dilutions of the lipopeptides in growth medium. Then, 10 µl of Alamar blue were added and plates were incubated for 3 h, after which fluorescence (excitation: 530 nm; emission: 590 nm) of the reduced resazurin was recorded (BioTek Instruments Synergy HT; Winooski, VT, USA).

**Q.** With `CCCCCCCCCC(=O)N[C@@H](CCN)C(=O)N[C@@H](CCN)C(=O)NCCCCCCCCCCCC(=O)N[C@@H](CCN)C(N)=O` [C10BBc12B, decanoyl-bis.diaminobutyrate-aminododecanoyl-diaminobutyrate-amide] (Decanoyl-[Dab][Dab][12Ado][Dab]-NH2) as the compound, how does the bladder bacterial load (UPEC CFT073; 24 h post-infection, 2 mg/kg rifampin, 7.5 mg/kg q.i.d. C10BBc12B or both, n = 5) read?
**A.** no reduction in bacterial load

**Q.** And the “efficacy of single dose regimen” value (UPEC CFT073; single dose 7.5 or […] 1 h post infection, alone or in combination with rifampin)?
**A.** essentially ineffective

**Q.** And the “MIC K. pneumoniae (n=2)” value (K. pneumoniae)?
**A.** > 50 µM

**Q.** And the “displacement of LPS-bound DPMB” value [1]?
**A.** inferior ability

**Q.** And the “MIC change against efflux deficient mutant versus wild-type” value (E. coli Ag100a (ΔacrAB))?
**A.** eightfold reduction in MIC value

**Q.** What about the “MIC E. coli (n=4)” value (E. coli) of the same compound?
**A.** 50 µM

**Q.** And the IC50 (HEK-293FT)?
**A.** > 50 µM
